Measured values from patent US10689526B2, “N-halamines compounds as multifunctional additives” (BOARD OF REGENTS, THE UNIVERSITY OF TEXAS SYSTEM, priority 2005, dated 2020).
Values belong to the molecule of their own block, whether it stands above or below them.

Assays:
[1] = test system: S. epidermidis; assay: Anti-biofilm functions of N-halamine-containing samples (recovered bacteria, SEM); format: cell-based; conditions: polyurethane samples containing 4% additive, three days of immersion in S. epidermidis
Experimental: Preparation of N-halamine-containing materials. In one example, a predetermined amount of Cl-ODDMH (e.g., 1%, 2% and 4% to PU) was added into 5% polyurethane (Noveon) solutions in THF under constant stirring to from a clear solution. The solution was cast onto Teflon sheets in a fume hood at room temperature for 2 days to produce thin films (e.g., 170±10 μm of thickness). The films were further dried under vacuum at 50° C. for 3 days. Cl-ODDMH-containing PU sheets (e.g., 4×4 cm) or discs (e.g., 0.5 cm of diameter) were cut sterilely from the films. Pure PU sheets or discs were prepared under the same conditions as controls.
Anti-biofilm functions. The samples were immersed individually in sealed tubes containing 5 mL of S. epidermidis broth suspension (10^6-10^7 CFU/mL of bacteria) in a shaking water bath at 37° C. and 30 RPM. […] The solution was serially diluted, and 100 μL of each dilution was plated onto agar plates. The same procedure was applied to the untreated samples as controls. Bacterial colonies were counted after incubation at 37° C. for between about 24 and 48 hours. SEM studies were used to confirm the biofilm controlling function. PU discs with or without the presence of Cl-ODDMH were immersed in 5 mL 10^6-10^7 CFU/mL of S. epidermidis broth suspensions in a water bath at 37° C. and 30 RPM. […]

[2] = Solubility in water; format: physicochemical
[3] = test system: Escherichia coli (E. coli, ATCC 15597, gram-negative); assay: Antimicrobial activity of CADMH in aqueous suspension; format: cell-based; conditions: for contact time for a total kill of 10^8-10^9 CFU/mL of E. coli: 500 ppm of active chlorine content; for % of kill of E. coli / log reduction of E. coli: 1000 ppm of active chlorine content
Experimental: (§1) In other examples to evaluate antimicrobial activities of CADMH, Escherichia coli (e.g., E. coli, ATCC® 15597™, gram-negative) and Staphylococcus aureus subsp. aureus (e.g., S. aureus, ATCC® 6538™, gram-positive) were used as model microorganisms to challenge the antimicrobial functions of the samples. In the microbial studies, the bacteria were grown in broth solutions (e.g., LB broth for E. coli; Tryptic Soy broth for S. aureus) overnight at 37° C. Cells were harvested in a centrifuge, washed twice with phosphate buffered saline (e.g., PBS, OmniPur®, NaCl, 8.0 g/L; KCl, 0.20 g/L; Na2HPO4, 1.42 g/L; KH2PO4, 1.36 g/L; pH 7.4), re-suspended in PBS, and then diluted to concentrations of 10^8-9 CFU/mL. A known amount of CADMH (particle size: 60-80 mesh) was dispersed in 10 mL of sterilized distilled water. The mixture was vortexed and then sonicated for 10 minutes. Then, 100 μL of the bacteria suspension were added into the CADMH-containing suspension and the resultant mixture was vortexed for 60 seconds. After a certain period of contact time under constant shaking, the mixture was poured into 90 mL of 0.03 wt % sterilized sodium thiosulfate aqueous solution to quench the active chlorine and stop the antimicrobial test. […] The resulting solutions were vortexed for 2 minutes and then serially diluted, and each dilution was placed onto LB agar (for E. coli) or Tryptic soy agar (for S. aureus). The same procedure was also applied to the correspondent unchlorinated samples as controls. Bacterial colonies on the plates were counted after incubation at 37° C. for 24 hours.

[4] = test system: Staphylococcus aureus subsp. aureus (S. aureus, ATCC 6538, gram-positive); assay: as above; format: cell-based; conditions: for contact time for a total kill of 10^8-10^9 CFU/mL of S. aureus: 500 ppm of active chlorine content
Experimental: as §1

[5] = DSC and TGA thermal analysis of Cl-BTMP; format: physicochemical
[6] = Thermal properties by DSC; format: physicochemical
Experimental: Thermal properties of the samples were examined with DSC, and the representative DSC curves are shown in FIG. 6 using DCSDMH and Cl-DCSDMH as examples. […] After chlorination, the N—H bond in DCSDMH is transformed into N—Cl group, and because of the lack of hydrogen bonding, the melting point of Cl-DCSDMH decreases to 52.4° C.

[7] = Storage stability, active chlorine content by iodimetric titration; format: physicochemical; conditions: PS and HDPE films, storage for 4 months at 23±2° C. and 70±5% RH
Experimental: After storage for about 4 months under ambient conditions (e.g., 23±2° C., 70±5% RH), all the samples retained more than 96% of their original chlorine contents. The antimicrobial functions were tested monthly during the storage period, and after 4 months of storage, the minimum contact time of the samples for a total kill of 10^8-10^9 CFU/mL of E. coli or S. aureus was unchanged.

[8] = test system: E. coli; assay: Antimicrobial activity of CADMH-containing PS or HDPE films (sandwich test); format: cell-based
Experimental: Preparation of CADMH-containing polymeric materials. PS and HDPE were used as the model polymers to preliminarily evaluate the antimicrobial activities of CADMH as additives. In the preparation of CADMH-containing PS films, a certain amount of CADMH was dissolved in 5% PS solutions in THF. The solution was poured onto glass slides. The glass slides were put in a fume hood for 2 days at room temperature to evaporate most of the solvent, and then further dried in a vacuum oven at 30° C. for 3 days to obtain polymer films (100±10 μm of thickness). To prepare CADMH-containing HDPE films, a predetermined amount of CADMH was added into 5% HDPE solutions in hot o-xylene under constant stirring. After evaporation of the solvent, polymer films having a thickness of about 70±5 μm were obtained by hot pressing at 140° C. for 15 seconds. The chlorine contents of the CADMH-containing PS and HDPE films were determined by iodimetric titration, as described above. Pure PS or HDPE films without the presence of CADMH were prepared using the same procedures as controls.
Antimicrobial activity of CADMH-containing polymers. In the antimicrobial tests of CADMH-containing PS or HDPE films, 10 μL of E. coli suspensions (e.g., 10^8-10^9 CFU/mL) were placed onto the surface of a film (e.g., 4×4 cm). The film was then covered with another identical film. A 100 grams weight was added onto the whole “sandwich” to ensure sufficient contact. At different contact time, the “sandwich” was transferred into 10 mL of 0.03 wt % sodium thiosulfate aqueous solution to quench the active chlorine of the samples. The mixture was sonicated for 20 minutes and vortexed for 60 seconds to remove the adherent bacteria into the solution. The resultant solution was serially diluted, and each dilution was placed onto LB agar plates. The same procedure was also applied to the pure PS or HDPE films as controls. Bacterial colonies were counted after 24 hours of incubation at 37° C.

[9] = 1000 ppm of active chlorine content, 5 minutes of contact
[10] = 1000 ppm active chlorine content

Compound: CCCCCCCCCCCCCCCCCCN1C(=O)N(Cl)C(C)(C)C1=O [Cl-ODDMH]
bacteria recovered from the samples [1]: less than 50 CFU/cm^2

Compound: CCN1C(=O)N(Cl)C(C)(C)C1=O [Cl-EDMH]
solubility in water ([2]; 23° C.): ca. 3 g/L | contact time for a total kill of 10^8-10^9 CFU/mL of E. coli [3]: less than 5 minutes | contact time for total kill of E. coli [3, 10]: less than 5 minutes | contact time for a total kill of 10^8-10^9 CFU/mL of S. aureus [4]: less than 5 minutes | contact time for total kill of S. aureus [4, 10]: less than 5 minutes

Compound: CCCCCCCCCCCCCCCCCCCCCCN1C(=O)N(Cl)C(C)(C)C1=O [Cl-DCSDMH]
exothermic peak in the DSC curve (decomposition of the N—Cl bond) [6]: 176.0 °C | active chlorine contents of the films after storage [7]: no changes | solubility in water (in words) [2]: insoluble | contact time for a total kill of 10^8-10^9 CFU/mL of E. coli ([8]; 1% additive in HDPE films): 4 hours | contact time for a total kill of 10^8-10^9 CFU/mL of E. coli ([8]; 1% additive in PS films): 4 hours | antimicrobial activities of the films after storage ([8]; PS and HDPE films, storage for 4 months at 23±2° C. and 70±5% RH): no changes | contact time for a total kill of 10^8-10^9 CFU/mL of E. coli [3]: 60 minutes | contact time for a total kill of 10^8-10^9 CFU/mL of S. aureus [4]: 60 minutes

Second part, led by results:

solubility in water (in words) [2]: insoluble
Compound: CCCCCCN1C(=O)N(Cl)C(C)(C)C1=O [Cl-HDMH]
contact time for a total kill of 10^8-10^9 CFU/mL of E. coli [3]: 30 minutes | % of kill of E. coli ([3]; 5 minutes of contact): 99% | log reduction of E. coli ([3]; 5 minutes of contact): 2 log | % of kill of E. coli ([3]; contact time 15 minutes): 99.999% | log reduction of E. coli ([3]; contact time 15 minutes): 5 log | contact time for a total kill of 10^8-10^9 CFU/mL of S. aureus [4]: 30 minutes | % of kill of S. aureus [4, 9]: 100% | log reduction of S. aureus [4, 9]: 7 log | log reduction of S. aureus ([4]; 1000 ppm of active chlorine content, contact time 15 minutes): 8 log

thermally stable up to [5]: up to 200 °C
Compound: CC1(C)CC(OC(=O)CCCCCCCCC(=O)OC2CC(C)(C)N(Cl)C(C)(C)C2)CC(C)(C)N1Cl [Cl-BTMP, bis(N-chloro-2,2,6,6-tetramethyl-4-piperidinyl) sebacate]
